Results published in US8017635B2, “Phenylalkyl substituted heteroaryl derivatives” (FMC Corporation, priority 2005, dated 2011).

System: tobacco budworm (Heliothis virescens [Fabricius])
Experiment: surface-treated diet test against tobacco budworm
Type: in vivo
Details: 0.25 millimolar candidate insecticide on the surface of the diet, second instar larvae, five-day exposure; for Percent Growth Inhibition: inhibition of insect weight relative to untreated controls; for Percent Mortality: mortality compared to the total number of insects infested
Procedure: Candidate insecticides were evaluated for activity against the tobacco budworm (Heliothis virescens [Fabricius]) in a surface-treated diet test.
In this test one mL of molten (65-70° C.) wheat germ-based artificial diet was pipetted into each well of a four by six (24 well) multi-well plate (ID# 430345-15.5 mm diameter×17.6 mm deep; Corning Costar Corp., One Alewife Center, Cambridge, Mass. 02140). The diet was allowed to cool to ambient temperature before treatment with the candidate insecticide.
For a determination of insecticidal activity, solutions of the candidate insecticides were prepared for testing using a Packard 204DT Multiprobe® Robotic System (Packard Instrument Company, 800 Research Parkway, Meriden, Conn. 06450), in which the robot first diluted a standard 50 millimolar DMSO solution of the candidate insecticide with a 1:1 water/acetone solution (V/V) in a ratio of 1:7 stock solution to water/acetone. The robot subsequently pipetted 40 microliters of the so-prepared solution onto the surface of the diet in each of three wells in the 24 multi-well plate. The process was repeated with solutions of seven other candidate insecticides. Once treated, the contents of the multi-well plate were allowed to dry, leaving […] of candidate insecticide on the surface of the diet, or a concentration of 0.25 millimolar. Appropriate untreated controls containing only DMSO on the diet surface were also included in this test. […]
In each well of the test plate was placed a second instar tobacco budworm larvae, weighing approximately five milligrams. After the larvae were placed in each well, the plate was sealed with clear polyfilm adhesive tape. The tape over each well was perforated to ensure an adequate air supply. The plates were then held in a growth chamber at 25° C. and 60% relative humidity for five days (light 14 hours/day).
After the five-day exposure period insecticidal activity for each rate of application of candidate insecticide was assessed as percent inhibition of insect weight relative to the weight of insects from untreated controls, and percent mortality when compared to the total number of insects infested.
The test compounds of formula I are identified by numbers that correspond to those in Table 1.

| Compound | Percent Growth Inhibition | Percent Mortality |
| --- | --- | --- |
| ClC(Cl)=CCOc1cc(Cl)c(OCCn2cc(-c3ccc(Oc4ccccc4)cc3)nn2)c(Cl)c1 [Compound 1-17] | 100% | 67% |
| ClC(Cl)=CCOc1cc(Cl)c(OCCn2cc(Cc3ccccc3)nn2)c(Cl)c1 [Compound 1-4] | 100% | 100% |
| CC(C)(C)c1cn(CCOc2c(Cl)cc(OCC=C(Cl)Cl)cc2Cl)nn1 [Compound 1-7] | 100% | 100% |
| CN(C)c1ccc(-c2cn(CCOc3c(Cl)cc(OCC=C(Cl)Cl)cc3Cl)nn2)cc1 [Compound 1-16] | 91% | 67% |
| FC(F)(F)c1ccc(-c2n[nH]c(CCOc3c(Cl)cc(OCC=C(Cl)Cl)cc3Cl)n2)cc1 [Compound 8-2, 5-(3,3-dichloroprop-2-enyloxy)-1,3-dichloro-2-(2-(3-(4-trifluoromethylphenyl)(1,2,4-triazolyl))ethoxy)benzene] | 100% | 100% |
| FC(F)(F)c1ccc(-c2cn(CCOc3c(Cl)cc(OCC=C(Cl)Cl)cc3Cl)nn2)nc1 [Compound 1-18] | 100% | 100% |
| 5-(3,3-dichloroprop-2-enyloxy)-1,3-dichloro-2-(2-(4-(4-chlorophenyl)-1,2,3-triazolyl)ethoxy)benzene [Compound 1-2] | 100% | 100% |
| ClC(Cl)=CCOc1cc(Cl)c(OCCn2nnc(-c3ccccc3Cl)n2)c(Cl)c1 [Compound 7-55] | 100% | 100% |
| ClC(Cl)=CCOc1cc(Cl)c(OCCn2cc(-c3ccc(Cl)cc3Cl)nn2)c(Cl)c1 [Compound 1-8] | 33% | 0% |
| ClC(Cl)=CCOc1cc(Cl)c(OCCn2nnc(-c3cccc(Cl)c3)n2)c(Cl)c1 [Compound 7-56] | 100% | 100% |
| FC(F)(F)c1ccc(-c2cn(CCOc3c(Cl)cc(OCC=C(Cl)Cl)cc3Cl)nn2)cc1 [Compound 1-1] | 100% | 100% |
| FC(F)(F)c1ccc(-c2nnn(CCOc3c(Cl)cc(OCC=C(Cl)Cl)cc3Cl)n2)cc1 [Compound 7-2] | 100% | 100% |
| ClC(Cl)=CCOc1cc(Cl)c(OCCn2nnc(-c3ccccc3)n2)c(Cl)c1 [Compound 7-1] | 100% | 100% |
| ClC(Cl)=CCOc1cc(Cl)c(OCCn2cc(-c3cccc(Cl)c3)nn2)c(Cl)c1 [Compound 1-12] | 100% | 100% |
| FC(F)(F)c1cccc(-c2nnn(CCOc3c(Cl)cc(OCC=C(Cl)Cl)cc3Cl)n2)c1 [Compound 7-54, 5-(3,3-dichloroprop-2-enyloxy)-1,3-dichloro-2(-2-(5-(3-trifluoromethylphenyl)(1,2,3,4-tetraazol-2-yl))ethoxy)benzene] | 100% | 100% |
| ClC(Cl)=CCOc1cc(Cl)c(OCCn2cc(CC3CCCC3)nn2)c(Cl)c1 [Compound 1-5] | 100% | 100% |
| FC(F)(F)c1cccc(-c2cn(CCOc3c(Cl)cc(OCC=C(Cl)Cl)cc3Cl)nn2)c1 [Compound 1-14] | 100% | 100% |
| ClC(Cl)=CCOc1cc(Cl)c(OCCn2cc(-c3ccccc3Cl)nn2)c(Cl)c1 [Compound 1-11] | 100% | 100% |
| ClC(Cl)=CCOc1cc(Cl)c(OCCn2cnc(-c3ccccc3)c2)c(Cl)c1 [Compound 2-1] | 100% | 100% |
| FC(F)(F)c1cccc(-c2noc(COc3c(Cl)cc(OCC=C(Cl)Cl)cc3Cl)n2)c1 [Compound 14-54, 5-(3,3-dichloroprop-2-enyloxy)-1,3-dichloro-2((3-(3-trifluoromethylphenyl)(1,2,4-oxadiazol-5-yl))methoxy)benzene] | 100% | 100% |
| Fc1ccc(-c2cn(CCOc3c(Cl)cc(OCC=C(Cl)Cl)cc3Cl)nn2)c(F)c1 [Compound 1-15] | 100% | 100% |
| FC(F)(F)c1ccc(OCc2cn(CCOc3c(Cl)cc(OCC=C(Cl)Cl)cc3Cl)nn2)cc1 [Compound 1-69] | 71% | 17% |
| ClC(Cl)=CCOc1cc(Cl)c(OCCn2cc(-c3ccc(Cl)c(Cl)c3)nn2)c(Cl)c1 [Compound 1-3] | 100% | 100% |
| C[Si](C)(C)c1cn(CCCOc2c(Cl)cc(OCC=C(Cl)Cl)cc2Cl)nn1 [Compound 1-19] | 100% | 100% |
| FC(F)(F)c1ccc(-c2cn(CCCOc3c(Cl)cc(OCC=C(Cl)Cl)cc3Cl)nn2)cc1 [Compound 1-9] | 100% | 100% |
| CC(C)Cc1cn(CCOc2c(Cl)cc(OCC=C(Cl)Cl)cc2Cl)nn1 [Compound 1-6] | 49% | 0% |
